Measurements from patent US8877185B2, “Managing and treating keloids” (priority 2012, dated 2014).

Tested on: keloid
Assay: Irritation at the keloid site following application of capsaicin
Assay type: in vivo, human
Conditions: topical, rubbed on the keloid; Capzasin HP 0.1% capsaicin
Source text: In an embodiment, a method of treating or managing a keloid includes firstly removing flurandrenolide tape (or CORDRAN® (flurandrenolide) tape) by peeling it off the keloid and secondly, cleaning the keloid with water and soap, and then drying the keloid with a cloth or a paper towel. After the keloid is dried, graphites ointment is applied in a manner that includes completely or partially covering the keloid with the graphites ointment. Graphites 6C ointment is available in the open market, for example, sold on the interne by a number of companies such as Pomade, Nelson, Boiron, or SBL. […] In an aspect of the method of treatment, witch hazel ointment is applied to the keloid evenly on the keloid either separately or together with graphites. Witch hazel (Hamamelis virginiana) is available in the open market as a cream, lotion ointment or liquid. […] The Hamamelis ointment is allowed to be absorbed by the keloid. In an embodiment, capsaicin cream or ointment is applied to the keloid. Capsaicin, 8-Methyl-N-vanillyl-trans-6-nonenamide) (CH3)2CHCH═CH(CH2)4CONHCH2C6H3-4-(OH)-3—(OCH3)) is the active composition or mixture of chili peppers, which are plants belonging to the genus Capsicum. Capsaicin may be obtained over-the-counter as for example, Capzasin HP 0.1% capsaicin (brand name CHATTEM Registered Trade mark, by Chattem Inc., TN). […]

In the case of `COc1cc(CNC(=O)CCCC/C=C/C(C)C)ccc1O` [Capsaicin, 8-Methyl-N-vanillyl-trans-6-nonenamide], the “Period of intense irritation or pain at the site of the keloid following application” value is reported as “about 30 minutes”.
